pKi: −log10 of the molar value.
Experiments:
[1] = target: T1, UapA (Aspergillus nidulans, UniProt Q07307); assay: competition of [3H]-xanthine uptake in germinating conidiospores; format: cell-based
T1 construct: full-length UapA, C-terminal GFP-type functional tag kept, gpdA promoter, expressed in A. nidulans Δ7 strain lacking 7 major nucleobase transporters; homodimer

[2] = target: T1, UapA; assay: [3H]-xanthine uptake in germinating conidiospores, initial rates; format: cell-based; settings: pH 6.8, 37°C; H+ symport; labelled compound; read-out: Km app

Compound	pKi [1]	Km [2] [µM]
O=c1[nH]c(=O)c2c[nH]nc2[nH]1 [OX, oxypurinol]	3.99	–
O=c1[nH]c(=O)c2[nH]cnc2[nH]1 [XA, xanthine]	–	6

Reference: publication PMC9434233, “Transmembrane helices 5 and 12 control transport dynamics, substrate affinity, and specificity in the elevator-type UapA transporter” (Genetics, 2022)
